Test results as given in PubChem BioAssay (NCI).
Where “and” joins values, the source holds several entries; their conditions need not be identical. Identical values can stand only once.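 These data come from cells grown in 96-well plates and exposed to compound for 48 hours at five concentrations. GI50 marks 50% less growth. TGI is the concentration that stops growth completely.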 Where a SMILES comes first, the peptide text is derived from it. [ ]: non-standard residue; d: D form. The star is where a group is joined. NMeAc5c = CNC1(C(=O)O)CCCC1; Boc = CC(C)(C)OC(=O)*; OBn = c1ccc(CO*)cc1

How the values were obtained:
Assay in all cases: NCI anticancer screen, dose series, 48 h
HL-60(TB) leukemia = system: HL-60(TB) leukemia
NCI-H226 lung = system: NCI-H226 lung
UACC-62 melanoma = system: UACC-62 melanoma
HOP-18 NSCLC = system: HOP-18 NSCLC
DMS 273 small cell lung = system: DMS 273 small cell lung
M19-MEL melanoma = system: M19-MEL melanoma
KM20L2 colon = system: KM20L2 colon
DMS 114 small cell lung = system: DMS 114 small cell lung
DLD-1 colon = system: DLD-1 colon

Structure (SMILES) | TGI (HL-60(TB) leukemia) | TGI (NCI-H226 lung) [µM] | TGI (UACC-62 melanoma) [µM] | further results
O=C1CCCSC(=O)N1Cc1ccccc1 | > 100 µM | > 100 | > 100 | 
COC(=O)c1c(C)cccc1C1CN=NC12Cc1ccc(C)cc1C2=O (stereo not drawn) | 47.1 µM | > 100 | 78.5 | 
CC(C)(C)OC(=O)N[C@H]1CCN(C2CCCCC2)C1=O | > 100 µM | > 100 | > 100 | 
CCCN(C(=O)c1ccccc1)C(C#N)c1ccc(C(C#N)N(CCC)C(=O)c2ccccc2)cc1 (stereo not drawn) | > 100 µM | 65.3 | > 100 | 
COc1cccc(C(=O)O[C@H]2[C@@H]3[C@]4(OC(C)=O)CO[C@@H]4C[C@H](O)[C@@]3(C)C(=O)[C@H](OC(C)=O)C3=C(C)[C@@H](OC(=O)[C@H](O)[C@@H](NC(=O)OC(C)(C)C)c4ccco4)C[C@]2(O)C3(C)C)c1 |  | > 15.2 | > 27.6 | 
N#Cc1c(-c2ccccc2)/c(=C\Nc2cccc(C(F)(F)F)c2)c(=O)n2c1nc1ccccc12 |  | 80.9 |  | 
COc1ccc(COCCOCc2nc(C#N)c(N)o2)cc1 | > 100 µM | > 100 | > 100 | 
S=C1Nc2ccccc2SC1c1ccccc1 (stereo not drawn) | > 100 µM | > 100 | > 100 | 
COC(=O)c1ccccc1CC1Cc2ccc3c(c2C1=O)CCCC3 (stereo not drawn) | > 100 µM | > 100 | > 100 | 
Cc1cn2c(/C=N/N=C(N)N)c(-c3cccc([N+](=O)[O-])c3)nc2s1 | 3.86 µM |  | 3.07 | 
CN1CCN(C2=NCCO2)CC1 | > 100 µM | > 100 | > 100 | 
c1ccc(N=c2sc3ccccc3nc2Nc2ccccc2)cc1 | > 100 µM | > 100 | > 100 | 
CCOC(=O)c1csc(NC(=O)CN2CCOCC2)n1 | > 100 µM |  | > 100 | 
O=C1/C(=C/c2ccccc2)N=C2Sc3c(nc[nH]c3=O)N12 | > 100 µM | > 100 |  | 
C=CC1(C)CCC2C(=CCC3C2(C)CC(O)C(O)C3(C)COC2OC(C(=O)O)C(O)C(O)C2O)C1 (stereo not drawn) (tested in a mixture with another compound) |  | > 100 | > 100 | 
N#Cc1c(N2CCCC2)ncn(-c2ccccc2)c1=O | > 100 µM | > 100 | > 100 | 
N#CC1(C#N)N[C@@H](c2ccsc2)[C@H]2C(=O)N(c3ccccc3)C(=O)[C@H]21 | 42 µM | > 100 | > 100 | 
O=C(CCN1CCCCC1)C(=Cc1ccccc1)C(=O)CCN1CCCCC1 | 6.05 µM and 48 µM | > 100 | > 100 | GI50 (HOP-18 NSCLC): > 100 µM; TGI (HOP-18 NSCLC): > 100 µM; GI50 (HL-60(TB) leukemia): 2200 nM; GI50 (DMS 273 small cell lung): 7.61 µM; TGI (DMS 273 small cell lung): > 100 µM; TGI (M19-MEL melanoma): > 100 µM; TGI (KM20L2 colon): > 100 µM; GI50 (DMS 114 small cell lung): 38.7 µM; TGI (DLD-1 colon): 44.5 µM; GI50 (UACC-62 melanoma): 8.82 µM
O=[N+]([O-])c1ccc2c(c1)/C(=N/N=C1c3ccccc3Cc3ccccc31)c1cc([N+](=O)[O-])cc([N+](=O)[O-])c1-2 | > 22.8 µM | 31.5 | 6.46 | 
CN(C(=O)C(Cc1ccccc1)NC(=O)OC(C)(C)C)C1(C(=O)NC(Cc2ccccc2)C(=O)OCc2ccccc2)CCCC1 (stereo not drawn) (Boc-Phe-[NMeAc5c]-Phe-OBn; configuration not given here) | 47.5 µM | > 100 | 71.2 | 
Cc1ccc([N+](=O)[O-])cc1NC1=NCCO1 | > 100 µM | > 100 | > 100 | 

Structure (SMILES) | TGI (HL-60(TB) leukemia) | TGI (NCI-H226 lung) [µM] | TGI (UACC-62 melanoma) [µM] | further results
O=c1ccc(-c2ccccc2)n[nH]1 | > 100 µM |  | > 100 | 
CC(C)=CCc1c2c(c3occ(-c4ccc(O)cc4)c(=O)c3c1O)CC(C(C)(C)O)O2 (stereo not drawn) | 34.4 µM | 43 | 30 | 
COc1ccc(-c2c(C#N)c(-c3ccc(C)cc3)n(NS(=O)(=O)c3ccc(C)cc3)c(=O)c2C#N)cc1 |  | > 100 | > 100 | 
CCOC(=O)C(SCCO)C(C(=O)OCC)n1cnc2c(=O)[nH]c(NC(C)=O)nc21 (stereo not drawn) | > 100 µM | > 100 | > 100 | 
Cc1cc(Cc2cc(C)c(N)cc2N)c(N)cc1N | > 100 µM | > 100 | > 100 | 
O=[N+]([O-])c1ccc2c(c1)c(OCc1ccccc1)nn2Cc1ccccc1 | > 100 µM | > 100 | > 100 | 
O=C(N/N=C(/COc1ccc(Cl)cc1)N=Cc1ccncc1)c1ccncc1 | > 100 µM | > 100 | > 100 | 
C#CCNC(CS)C(=O)O (stereo not drawn) | > 100 µM | > 100 | > 100 | 
COc1cc(C2c3cc4c(cc3OC(N3CCOCC3)C2C)OCO4)ccc1O (stereo not drawn) | 23.6 µM |  | > 100 | 
Cc1ccc(N=NC(=Nc2ccccc2)c2ccc(N(CCC#N)CCC#N)cc2)cc1 |  | > 100 | 58.9 | 
Cc1ccccc1C(=O)N1CCc2c([nH]c3ccccc23)C1 | 39.2 µM | 65 | 31.6 | 
NC(=O)NCCCC(NC(=O)OCCCCn1ccc(=O)[nH]c1=O)C(=O)O (stereo not drawn) | > 100 µM | > 100 | > 100 | 
O=C1CCCc2cc3c(cc21)CC1(Cc2ccccc2C1)C3 | 5.02 µM | 12.8 | > 100 | 
Cc1ccc(Cl)c2[nH]c(-c3ccccc3)cc(=O)c12 | > 100 µM | > 100 | > 100 | 
Clc1ccccc1C(SCc1ccccc1)SCc1ccccc1 | > 100 µM | > 100 | > 100 | 
COc1ccc2c(c1)/C(=C/CCN(C)C)c1ccccc1S2 | > 100 µM | > 100 |  | 
CC[C@@H]1CC[C@@H]2[C@H](CC[C@]3(C)[C@@H](OC(C)=O)CC[C@@H]23)[C@H]1COC(C)=O | 39.2 µM | 52.5 | 88 | 
NS(=O)(=O)c1ccc2c(c1)OCCOCCOCCOCCO2 | > 100 µM | > 100 | > 100 | 
CCOC(=O)/C=C/CC(C)(C)CCOC(C)=O | > 10 µM | > 10 | > 10 | 
COC(=O)C([C@H](NC1(c2ccccc2)c2ccccc2-c2ccccc21)C(=O)OC)N(NC(=O)OCc1ccccc1)C(=O)OCc1ccccc1 (mixture of isomers) | > 100 µM |  | > 100 | 
COC(=O)c1cc(=O)nc2sc3cccc(C)c3n12 | 62.6 µM | > 100 | > 100 | 
